Results on one molecule are retold here after article PMC3231940, “Disposition, metabolism and mass balance of [^14C]apremilast following oral administration” (Xenobiotica; the Fate of Foreign Compounds in Biological …, 2011).

Data set [1] in a line: Apremilast in plasma by chiral LC/MS/MS, non-compartmental PK. The data set is classed as in vivo, human. The protocol:
(§1) Urine was collected pre-dose, 0-4, 4-8, 8-12, 12-24 and every 24 h thereafter up to 216h (9 days) following dose administration and was stabilized with one volume of pH 1.5 Sorensen's citrate buffer (25-mM sodium citrate buffer adjusted to pH 1.5). Individual faecal samples were collected pre-dose and for up to 9 days following dose administration, and homogenized using approximately three volumes by weight of pH 1.5 Sorensen's citrate buffer. Blood (two 5-mL samples for plasma radioactivity counting, a 3-mL sample for whole blood radioactivity counting, a 2-mL sample for apremilast analysis and a 10-mL sample for metabolite profiling) was collected into heparinized tubes at pre-dose, 0.5, 1, 1.5, 2, 2.5, 3, 4, 6, 8, 12, 16, 24, 36, 48, 72, 96, 120, 144 and 168 h following dose administration. Blood samples collected for radioactivity counting were stored at or below -20°C until analysed. Plasma was harvested by centrifugation from all other blood samples. The plasma samples for apremilast analysis and metabolite profiling were mixed with an equal volume of pH 1.5 Sorensen's citrate buffer containing 20-μM amastatin. All urine, faecal homogenates and plasma samples were stored at or below -20°C until analysed.
Plasma concentrations of apremilast were determined using a Chiral liquid chromatography with tandem mass spectrometry (LC/MS/MS) assay validated for concentrations between 1.00 and 1000ng/mL, with quality control (QC) samples prepared at 3.00, 50.0 and 750 ng/mL. Apremilast and (3S-cis)-(+)-tetrahydro-3,7a-diphenylpyrrolo[2, 1-b] oxazol-5(6H)-one (internal standard; IS) were extracted from 50 μL of plasma (stabilized with 50-μL Sorenson's citrate buffer) using liquid-liquid extraction with methyl tertiary butyl ether. The aqueous layer was frozen and the solvent layer was transferred to a new tube. The solvent was evaporated, the samples were reconstituted and injected for LC/MS/MS analysis using a Chiral AGP (150×4.0mm, 5 μm; Chrom Tech, Inc., Apple Valley, MN) analytical column. Positive ions were measured in the multiple reaction monitoring (MRM) mode using a Sciex API-4000 tandem mass spectrometer equipped with a Turbo IonSpray source with precursor→product ion pairs of 461.0→177.9 for apremilast and 280.1→160.3 for IS. For the QC samples, the accuracy ranged from 87.5% to 106.7%.
Pharmacokinetic data were generated by non-compartmental analysis of plasma or whole blood versus time profiles using WinNonlin (version 4.1, Enterprise Edition). For individual subjects, the peak concentration (Cmax), time to Cmax (Tmax), area under the concentration versus time curve from time zero to the last quantifiable concentration (AUC0-t), area under the concentration versus time curve from time zero to infinity (AUC0-∞ and the apparent terminal elimination half-life (t½) were determined. AUC0-t) and AUC0-∞ were calculated using the linear trapezoidal rule. AUC0-∞ was calculated as the sum of […], where Clast, is the last observed quantifiable concentration.

Data set [2] in a line: Mass balance: excretion of radioactivity in urine and faeces after a single oral [14C]apremilast dose. The format is in vivo, human. As to the method: This was an open-label, inpatient, single-dose study conducted with six non-smoking healthy male volunteers, aged between 19 and 55 years, with body mass index between 19 and 29kg/m^2. Before initiation of the study, the protocol and consent form were reviewed and approved by the institutional review board. All study participants gave written informed consent before the screening process was initiated. This study was conducted in full accordance with the Declaration of Helsinki and Good Clinical (GCP) as required by and described in 21 Code of Federal Regulations.
Each subject was administered a single oral suspension of 20 mg (100 μCi) of [^14C] apremilast in distilled water (240mL total volume). Subjects were fasted for 8 h prior to and 4 h following dose administration. The residual radioactivity in the dosing vials was determined and accounted for approximately 0.3% of the total radioactivity. Dose administration, sample collection, sample processing and determination of total radioactivity were conducted at MDS Pharma Services (Lincoln, NE). Determination of apremilast in plasma, metabolite profiling and metabolite characterization were performed at XenoBiotic Laboratories, Inc. (Plainsboro, NJ).
as §1, with “Individual faecal samples were collected pre-dose and for up to 9 days following dose administration, and homogenized using approximately three volumes by weight of pH 1.5 Sorensen's citrate buffer.” left out, “Plasma was harvested by centrifugation from all other blood samples. The plasma samples for apremilast analysis and metabolite profiling were mixed with an equal volume of pH 1.5 Sorensen's citrate buffer containing 20-μM amastatin.” left out
All radioactivity determinations were performed using a Tri-Carb model 1600TR liquid scintillation counter (PerkinElmer, Wellesley, MA). For plasma and urine analysis, duplicate samples of a known volume were mixed with Ultima Gold XR scintillation cocktail and directly analysed by liquid scintillation counting. […] Using these criteria, the lower limit of quantification in plasma, blood, urine and faeces were 2.07 ng [^14C]apremilast equivalent/mL (ngEq/mL), 2.61 ngEq/g, 1.89 ngEq/mL and 2.52 ngEq/g, respectively.
The amount of total radioactivity (ngEq) in urine and faeces was determined by multiplying the volume or weight of the samples by the radioactivity concentration. […] For data values below the limit of quantification, a value of zero was assigned for calculations of means.

Another data set has as its system CYP3A4. More on the design: method as in Wu et al. 2006. As to conditions: co-administration with ketoconazole, healthy subjects; ref Wu et al. 2006; cited from earlier work.
The conditions of data set [3]: cited from earlier work.
[4] abbreviates: patients, 20 mg daily for 29 days, capsules, ref Gottlieb et al. 2008.

Values joined by “and” are separate entries in the source; they are usually repeats but may differ in a detail not shown here. Identical values can stand only once. Like-named read-outs stand apart in the source and are kept apart here.

Take `CCOc1cc([C@@H](CS(C)(=O)=O)N2C(=O)c3cccc(NC(C)=O)c3C2=O)ccc1OC` [Apremilast, (+)-N-[2-[(lS)-1-(3-ethoxy-4-methoxyphenyl)-2-(methylsulfonyl)ethyl]-1,3-dioxo-2,3-dihydro-lH-isoindol-4-yl]acetamide]: in data set [1] (chiral LC/MS/MS assay, single oral 20-mg dose, mean ± SD), the “Plasma t½” value amounted to 6.8 ± 2.6 h. The half-life is approximately 7 h in data set [1] (male, human, plasma, po, 20 mg, chiral LC/MS/MS assay, single oral 20-mg dose, mean ± SD, read-out: Plasma t½ (converted)) and 8.2 h in data set [3] (patients with severe plaque-type psoriasis, multiple daily doses, ref Gottelieb et al. 2008). Moreover, the AUC was 1910 ± 339 ng·h/mL in data set [1] (male, human, plasma, po, 20 mg, single oral 20-mg dose, read-out: AUC determined via LC/MS) and 1970 ng·h/mL in data set [1] (male, human, plasma, po, 20 mg, single oral dose 20 mg, 100 uCi, read-out: Mean AUC0 in plasma). Also, the AUC(0-t) in data set [1] (male, human, plasma, chiral LC/MS/MS assay, single oral 20-mg dose, mean ± SD, read-out: Plasma AUC0-t) was found to be 1910 ± 339 ng·h/mL. The AUC(0-inf) in data set [1] (male, human, plasma, chiral LC/MS/MS assay, single oral 20-mg dose, mean ± SD, read-out: Plasma AUC0-∞) is 1970 ± 343 ng·h/mL. The Tmax in data set [1] (male, human, plasma, chiral LC/MS/MS assay, single oral 20-mg dose, median and range) is less than 2 h. Also, the Cmax in data set [1] (male, human, plasma, single oral dose 20 mg, 100 uCi) was 333 ng/mL; in data set [3] (setting [4]), 207 ng/mL. The “Amount of drug absorbed” value is given as “at least 58%” in data set [2] (based on urinary radioactivity) and more than 80% in data set [2] (if faecal metabolites are included in the calculation). In data set [2] (collection over 216 h, listed as [^14C]apremilast), the “Faecal excretion of radioactivity, mean (percentage of dose)” value is 39% and 39.2%. Besides, the “Radioactivity recovered within the first 4 days (96 h)” value in data set [2] (urine plus faeces, 96 h after dose, listed as [^14C]apremilast) is > 90% and > 92%. In the data set on CYP3A4, the “Increase in apremilast AUC” value was 36%. Moreover, in the data set with CYP3A4, the “Increase in mean apremilast Cmax” value is 5%. Moreover, the AUC0-24 in data set [3] (setting [4]) was 1799 ng·h/mL.
